Measured values taken from patent publication US20160081938A1, “ACAMPROSATE FORMULATIONS, METHODS OF USING THE SAME, AND COMBINATIONS COMPRISING THE SAME” (Synchroneuron Inc., priority 2013, published 2016).

How the values were obtained:
[1] = Simulated sustained release in a dog model; type: in vivo; conditions: sustained presentation over eight hours
Procedure: It has been discovered that the shape of the PK curve and not just the AUC can make a difference to efficacy. Specifically, having a plasma concentration above a threshold for several hours per day (e.g., 4-8 hours) may be more efficacious than maintaining a concentration just below that threshold for 24 hours a day. […] In this model, the drug conserved by avoiding a high single dose and high Cmax was distributed across several hours, giving a several hour period in which the plasma concentration of acamprosate was higher than the plasma concentration after administration of a single dose of the immediate release version.
In a dog study of simulated sustained release of acamprosate it was shown that through sustained release a higher residence time above a threshold can be attained than by giving the same dose all at once. Combining the results from the dog study with the implications of the reported human cases we contemplate that acamprosate delivered by a sustained release system can relieve symptoms of TD and other neuropsychiatric disorders given once or twice a day. […] Thus it appears that a total daily dose of less than one gram of sustained release acamprosate, given on a twice a day basis, or perhaps even on a once a day basis, could be adequate to treat TD in the case examples. […]

[2] = high solubility and low permeability; cited from earlier work

For `CC(=O)NCCCS(=O)(=O)O` [Acamprosate, 3-(acetylamino)-1-propanesulfonic acid], the “residence time above a threshold concentration vs immediate release of the same dosage” value [1] is given as “significantly longer residence time” and the “Biopharmaceuticals Classification System (BCS) class” value [2] is given as “Class III”.
